Source: US10787432B2, “N-[(pyridyloxy)propanyl]benzamides” (Boehringer Ingelheim International GmbH, priority 2016, dated 2020)

Target: T1, human Orexin 1 receptor (Homo sapiens, UniProt O43613)
T1 construct: stably expressing the full-length human Orexin 1 receptor; expressed in transfected cells; host or cells: CHO-K1 (CHO-K1/hOX1), co-expressing aequorin
T1 sequence (O43613 1-425): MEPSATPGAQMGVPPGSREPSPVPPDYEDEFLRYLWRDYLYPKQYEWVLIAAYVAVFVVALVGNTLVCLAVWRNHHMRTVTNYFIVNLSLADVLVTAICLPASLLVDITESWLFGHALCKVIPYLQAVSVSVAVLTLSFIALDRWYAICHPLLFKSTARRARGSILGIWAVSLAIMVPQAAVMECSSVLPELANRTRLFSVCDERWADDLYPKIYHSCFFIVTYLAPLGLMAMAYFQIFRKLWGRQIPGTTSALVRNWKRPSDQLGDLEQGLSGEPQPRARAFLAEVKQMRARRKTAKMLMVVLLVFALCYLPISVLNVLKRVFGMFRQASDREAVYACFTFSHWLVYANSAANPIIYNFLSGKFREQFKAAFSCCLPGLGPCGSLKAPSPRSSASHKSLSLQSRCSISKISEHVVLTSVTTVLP
Experiment: Assay A: In vitro testing of OX1R potency: OX1R IP1 (HTRF, CHO-K1/hOX1 cells, Orexin A as agonist)
Assay type: cell-based
Conditions: OX1R Kb at 0.5 nM Orexin A
With `CCN(C(=O)c1ccc(C)cc1-c1ncccn1)[C@@H](C)COc1ccc(C(F)(F)F)cn1` [Example 101] the “OX2R Kb/OX1R Kb” value was 79. In the case of `CCN(C(=O)c1ccc(C#N)cc1-n1nccn1)[C@@H](C)COc1ccc(C(F)(F)F)cn1` [Example 103], the “OX2R Kb/OX1R Kb” value is reported as 273. In the case of `CCN(C(=O)c1cccc(F)c1-n1nccn1)[C@@H](C)COc1ccc(Br)cn1` [Example 111], the “OX2R Kb/OX1R Kb” value is reported as 123. With `CCN(C(=O)c1cccc(F)c1-n1nccn1)[C@@H](C)COc1ncc(Br)cc1F` [Example 112] the “OX2R Kb/OX1R Kb” value was 168. With `CCN(C(=O)c1cccc(F)c1-n1nccn1)[C@@H](C)COc1ncc(C(F)(F)F)cc1F` [Example 113] the “OX2R Kb/OX1R Kb” value was 173. In the case of `CCN(C(=O)c1cccc(F)c1-n1nccn1)[C@@H](C)COc1ccc(Cl)cn1` [Example 114], the “OX2R Kb/OX1R Kb” value is reported as 92.

Same assay, conditions: OX1R Kb at 50 nM Orexin A
With `CCN(C(=O)c1cccc(F)c1-n1nccn1)[C@@H](C)COc1ccc(Br)cn1` [Example 111] the “OX2R Kb/OX1R Kb” value was 213. For `CCN(C(=O)c1cccc(F)c1-n1nccn1)[C@@H](C)COc1ncc(Br)cc1F` [Example 112], the “OX2R Kb/OX1R Kb” value was 192. For `CCN(C(=O)c1cccc(F)c1-n1nccn1)[C@@H](C)COc1ccc(Cl)cn1` [Example 114], the “OX2R Kb/OX1R Kb” value was 98.

Same assay, conditions: Orexin A 0.5 nM; read-out: OX1R Kb (Orexin A concentration used)
For `CCN(C(=O)c1ccc(C)cc1-c1ncccn1)[C@@H](C)COc1ccc(C(F)(F)F)cn1` [Example 101], the Kb was 0.38 nM. Work on `CCN(C(=O)c1ccc(C#N)cc1-n1nccn1)[C@@H](C)COc1ccc(C(F)(F)F)cn1` [Example 103] yielded a Kb of 4.28 nM. Compound `CCN(C(=O)c1cccc(F)c1-n1nccn1)[C@@H](C)COc1ccc(Br)cn1` [Example 111] has a Kb of 0.4 nM. In the case of `CCN(C(=O)c1cccc(F)c1-n1nccn1)[C@@H](C)COc1ncc(Br)cc1F` [Example 112], the Kb is reported as 0.57 nM. For `CCN(C(=O)c1cccc(F)c1-n1nccn1)[C@@H](C)COc1ncc(C(F)(F)F)cc1F` [Example 113], the Kb was 0.4 nM. `CCN(C(=O)c1cccc(F)c1-n1nccn1)[C@@H](C)COc1ccc(Cl)cn1` [Example 114] showed a Kb of 0.59 nM.

Same assay, conditions: Orexin A 50 nM; read-out: OX1R Kb (Orexin A concentration used)
`CCN(C(=O)c1cccc(F)c1-n1nccn1)[C@@H](C)COc1ccc(Br)cn1` [Example 111] showed a Kb of 0.23 nM. With `CCN(C(=O)c1cccc(F)c1-n1nccn1)[C@@H](C)COc1ncc(Br)cc1F` [Example 112] the Kb was 0.5 nM. `CCN(C(=O)c1cccc(F)c1-n1nccn1)[C@@H](C)COc1ccc(Cl)cn1` [Example 114] showed a Kb of 0.55 nM.

Test system: not listed separately
Experiment: Assay C: Metabolic stability in human liver microsomes (Human MST)
Assay type: in vitro ADME
Conditions: pooled human liver microsomes, pH 7.6; human liver microsomes 1 mg/mL, compound 1 μM, 37° C., NADPH; read-out: Human MST t1/2
Description: C. Assessment of Metabolic Stability in Human Liver Microsomes (Human MST)
The metabolic stability of the compounds according to the invention may be investigated as follows:
The metabolic degradation of the test compound is assayed at 37° C. with pooled human liver microsomes. The final incubation volume of 100 μL per time point contains TRIS buffer pH 7.6 at room temperature (0.1 M), MgCl2 (5 mM), microsomal protein (1 mg/mL) and the test compound at a final concentration of 1 μM. Following a short pre-incubation period at 37° C., the reactions are initiated by addition of beta-nicotinamide adenine dinucleotide phosphate, reduced form (NADPH, 1 mM), and terminated by transferring an aliquot into solvent after different time points. After centrifugation (10000 g, 5 min), an aliquot of the supernatant is assayed by LC-MS/MS for the amount of parent compound. The half-life (t1/2) is determined by the slope of the semi-logarithmic plot of the concentration-time profile.
`CCN(C(=O)c1ccc(C)cc1-c1ncccn1)[C@@H](C)COc1ccc(C(F)(F)F)cn1` [Example 101] showed a half-life at 1 μM of 0.217 h. Compound `CCN(C(=O)c1ccc(C#N)cc1-n1nccn1)[C@@H](C)COc1ccc(C(F)(F)F)cn1` [Example 103] has a half-life at 1 μM of 0.967 h. Compound `CCN(C(=O)c1cccc(F)c1-n1nccn1)[C@@H](C)COc1ccc(Br)cn1` [Example 111] has a half-life at 1 μM of 1.03 h. Work on `CCN(C(=O)c1cccc(F)c1-n1nccn1)[C@@H](C)COc1ncc(Br)cc1F` [Example 112] yielded a half-life at 1 μM of 1.12 h. Compound `CCN(C(=O)c1cccc(F)c1-n1nccn1)[C@@H](C)COc1ncc(C(F)(F)F)cc1F` [Example 113] has a half-life at 1 μM of 1.58 h. In the case of `CCN(C(=O)c1cccc(F)c1-n1nccn1)[C@@H](C)COc1ccc(Cl)cn1` [Example 114], the half-life at 1 μM is reported as 1.83 h.

Target: T2, human orexin 2 receptor (Homo sapiens, UniProt O43614)
T2 construct: stably expressing the full-length human orexin 2 receptor; expressed in transfected cells; host or cells: CHO-K1 (CHO-K1/hOX2), co-expressing aequorin
T2 sequence (O43614 1-444): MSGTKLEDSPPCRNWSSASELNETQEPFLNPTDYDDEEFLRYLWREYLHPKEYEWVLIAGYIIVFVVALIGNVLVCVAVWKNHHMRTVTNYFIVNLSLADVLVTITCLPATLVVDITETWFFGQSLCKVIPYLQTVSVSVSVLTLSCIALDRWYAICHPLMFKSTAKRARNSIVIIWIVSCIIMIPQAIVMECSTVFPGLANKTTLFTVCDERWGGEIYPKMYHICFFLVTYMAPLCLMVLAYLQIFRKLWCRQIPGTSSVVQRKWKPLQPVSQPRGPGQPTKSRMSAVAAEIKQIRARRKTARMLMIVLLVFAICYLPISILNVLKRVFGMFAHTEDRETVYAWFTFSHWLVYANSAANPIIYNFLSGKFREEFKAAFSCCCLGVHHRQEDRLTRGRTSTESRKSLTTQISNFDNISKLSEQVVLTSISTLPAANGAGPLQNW
Experiment: Assay B: In vitro testing of OX2R potency: OX2R IP1 (HTRF, CHO-K1/hOX2 cells, Orexin A as agonist)
Assay type: cell-based
Conditions: Orexin A 0.5 nM
Description: Activation of the orexin receptors expressed in cell lines results in an increase in intracellular IP3 concentration. IP1, a downstream metabolite of IP3, accumulates in cells following receptor activation and is stable in the presence of LiCl. Using Homogeneous Time-Resolved Fluorescence technology with Lumi4-Tb cryptate (commercially available from Cisbio Bioassay.) and a suitable fluorescence plate reader. […] Chem. Genomics 2009, 3, 22-32. This technique is used to characterize pharmacological modification of the orexin receptors.
B. In Vitro Testing of OX2R Potency: OX2R IP1
IP1 measurements are performed in CHO-K1 cells stably expressing the full-length human orexin 2 receptor and the aequorin photoprotein. Cells are cultivated in Ham's nutrient mixture F12 medium with 10% fetal calf serum, in a 37° C., 95% humidity and 5% CO2 incubator. The CHO-K1/hOX2 cell mass is expanded to larger cell numbers. The cells are obtained as frozen cells in cryo-vials and stored until use at −150° C. The viability of the cells after thawing is >90%. In preparation for the assay, 24 hours before the assay, the cells are thawed at 37° C. and immediately diluted with cell culture medium. After centrifugation, the cell pellet is resuspended in medium and then distributed into the assay plates with a density of 5000 cells/25 μL per well. The plates are incubated for one hour at room temperature to reduce edge effects before they are incubated for 24 hours at 37° C./5% CO2. Compounds are prepared by a 8-point serial dilution in DMSO and a final dilution step into assay buffer (HBSS with 20 mM HEPES, 0.1% BSA and 50 mM LiCl, pH 7.4) to ensure a final DMSO concentration of 1% in the assay.
On the day of the assay, cells in the plate are washed twice with 60 μL assay buffer (20 μL buffer remained in the wells after washing), followed by adding 5 μL per well of compounds diluted in assay buffer. After 15 minutes of incubation at room temperature 5 μL per well of Orexin A peptide (final concentration: 0.5 nM) dissolved in assay buffer is added to the assay plate. The assay plate is incubated for 60 minutes at 37° C. Then 5 μL per well of Anti-IP1-Cryptate Tb solution and 5 μL per well of IP1-d2 dilution are added to all well of the plate and the plate is incubated for a further 60 minutes light protected at room temperature. The emission at 615 nm and 665 nm (Excitation wavelength: 320 nm) are measured using an EnVision reader (PerkinElmer). The ratio between the emission at 665 nm and 615 is calculated by the reader.
8-point four parametric non-linear curve fitting and determination of IC50 values and Hill slopes is performed using a regular analysis software e.g. AssayExplorer (Accelrys). In order to establish an agonist concentration independent parameter, Kb values are calculated using the following equation: IC50/((2+(A/EC50)n)^1/n−1) (with A=concentration agonist, EC50=EC50 agonist, n=Hill slope agonist) (see P. Leff, I. G. Dougall, Trends Pharmacol. Sci. 1993, 14(4), 110-112).
Kb values from Assay A (OX1R) and Assay B (OX2R) can then provide a selectivity ratio which is independent of the agonist (Orexin A) concentration.
Compound `CCN(C(=O)c1ccc(C)cc1-c1ncccn1)[C@@H](C)COc1ccc(C(F)(F)F)cn1` [Example 101] has a Kb of 30 nM. `CCN(C(=O)c1ccc(C#N)cc1-n1nccn1)[C@@H](C)COc1ccc(C(F)(F)F)cn1` [Example 103] showed a Kb of 1170 nM. Compound `CCN(C(=O)c1cccc(F)c1-n1nccn1)[C@@H](C)COc1ccc(Br)cn1` [Example 111] has a Kb of 49 nM. `CCN(C(=O)c1cccc(F)c1-n1nccn1)[C@@H](C)COc1ncc(Br)cc1F` [Example 112] gave a Kb of 96 nM. Compound `CCN(C(=O)c1cccc(F)c1-n1nccn1)[C@@H](C)COc1ncc(C(F)(F)F)cc1F` [Example 113] has a Kb of 69 nM. Compound `CCN(C(=O)c1cccc(F)c1-n1nccn1)[C@@H](C)COc1ccc(Cl)cn1` [Example 114] has a Kb of 54 nM.
